According to patent US20250332263A1, “SURFACTANT STABILIZERS” (NOVARTIS AG, priority 2021, published 2025):
“Also recorded” adds a separate entry of the source.

What was measured:
[1] = Surfactant stability under oxidative stress (H2O2); format: physicochemical; details: 0.25 M and 2.5 M H2O2, 6 days at 40° C., vs non-treated control
Description: (§1) Polysorbate 20/80 suffers from chemical and enzymatic degradation mechanisms as described earlier. In order to test the amphiphilic surfactants of the disclosure for stability against oxidative and hydrolytic stress, the following forced degradation assay was performed using hydrogen peroxide and various buffers to mimic those stress conditions. The aim was to mimic chemical degradation pathways that surfactants would encounter during shelf life.
(§2) H2O2(0.25 M and 2.5 M) was added to formulations containing surfactants and subsequently incubated for 6 days at 40° C. in order to mimic oxidative stress. In addition, surfactants were added to different buffer types (e.g., histidine, citrate, phosphate and succinate buffer) and exposed to accelerated degradation stress such as temperature stress (50° C. for 1 month) at different pH (5.5 and 6.5) in order to mimic chemical degradation pathways (e.g., oxidation, hydrolysis). Control samples were frozen to avoid degradation (FZ). Chromatography methods were used to determine the surfactant content of formulations after accelerated conditions by comparing it to the amount of surfactant spiked into the buffer at the beginning of the experiment.

[2] = Surfactant stability under pH and temperature stress in different buffers; format: physicochemical; details: pH 5.5 and 6.5, 50° C. for 1 month, vs frozen control (FZ)
Description: as §1, §2

[3] = test system: host cell proteins (HCPs) of Protein 4; experiment: Enzymatic degradation of surfactant in protein 4 formulation; format: physicochemical; details: 0.02% PS80 or 0.04% other surfactants, one month at 5° C. or 40° C., HPLC
Description: Therefore, a formulation containing protein 4 also contains the enzymes responsible for polysorbate degradations and it is a suitable proxy for testing the propensity of enzymatic degradation during shelf life in real-world conditions.

[4] = Quiescence stability study, oxidative and hydrolytic degradation of surfactant in Protein 2 formulation; details: six months at 25° C.; for surfactant content left: HPLC main peak
Description: A pull point was taken every month and a half (TO, T1.5m, T3m, T4.5m and T6m) and frozen for storage.
The surfactant content was measured for all pull points of a specific surfactant in a single series by HPLC and the analysis was performed by a standard baseline correction followed by integration of the main peak, representing the integer (not degraded) surfactant.

protein 1 = experiment: Equilibrium surface tension, pendant-drop tensiometer (protein displacement at air/water interface); format: physicochemical; details: surfactant in histidine buffer, absence or presence of protein 1, compared with protein 1 without surfactant; 60 min
Description: The aim of this experiment was to investigate the type of stabilization mechanism which the surfactants employ in protein-containing formulations. A Pendant-Drop Tensiometer was utilized to determine protein (API) displacement by surfactants at the air/water interface. Surfactant interface saturation mitigates the risk of interfacial stress for proteins and associated negative effects potentially impacting protein quality attributes.
The protein corresponding buffer was prepared and sterile filtered using a 0.22 μm filter unit. The surfactant in question was added into the buffer using a 5% stock solution as described earlier.
The buffer surfactant mix was aliquoted in 2 Nalgene bottles. To one of the two bottles was added the respective API in question to reach a final concentration of 1 mg/mL for protein 1 and 10 mg/mL for proteins 2 and 3.
Equilibrium surface tension was measured using the PAT-1M tensiometer (Sinterface). The system was rinsed 12 times with the sample to be measured. A hanging drop of constant volume (20 μL) was measured every second for 60 min. Drug substance samples with and without surfactants were measured at the same day to avoid operator, sample and day to day variations.

[5] = test system: protein 1 (disordered protein); experiment: Orbital shaking forced degradation, particle count by micro-flow-imaging, Protein 1; format: physicochemical; details: orbital shaking 250 rpm, ambient temperature, 0 h, 7 h and 24 h
Description: The API corresponding buffer was prepared with 20 mM Histidine, 220 mM Succrose pH 5.8 in water.
The aim of this experiment was to investigate the effect of amphiphilic surfactants to protect proteins from interfacial stress, such as that which is present during manufacturing, transport and application. As a proxy for this stress the forced degradation assay (orbital shaking), applying mechanical stress, was used in order to determine whether chosen surfactants stabilize three different protein API's (disordered protein, Fab, mAb) against mechanical stress (mitigating particle creation (protein aggregates)).
1.2 mL of sample was aliquoted in each 6R vial (2x). Vials of same sample were pooled after the study in order to generate enough volume for all analytical testing.
Mechanical stress was generated through orbital shaking at 250 rpm at ambient temperature for 0 h, 7 h, 24 h and 48 h using an orbital shaker. Samples were subsequently analyzed via micro-flow-imaging (MFI). Particle count >2 μm/mL was visualized by MF.

Basophile cells = experiment: Basophile activation assay (B-cell activation); format: cell-based, human; details: compared to polysorbate and B-cell activating positive control
Description: Basophile activation assay: Human whole blood was used to purify B-cells using an in vitro B-cell activation kit (Cellonic, Basotest, Cat #10-0500). Basophile cells were incubated in 100 μL 1×wash buffer containing the final surfactant concentration as the correct dilutions were prepared beforehand. Cell labeling, lysis and fixation was performed according to manufacturer instructions and subsequently analyzed using a BD FORTESSA flow cytometer. Leucocytes are gated via forward and sideward scatter. The Basophile subpopulation was gated on CD123 and IgE staining. Finally, activated Basophile cells were identified via CD203c and CD63 gating. All fluorescently labeled antibodies were provided in the kit stated above.

dendritic cells = experiment: Dendritic cell activation; format: cell-based, human; details: 48 h surfactant incubation, compared to LPS activated DC and no-treatment control
Description: Dendritic cell activation: Human whole blood was used to extract monocytes using MACS (magnetic activated cell sorting) according to manufacturer's instructions (Miltenyi Biotec Order no. 130-114-980). Cells were incubated for 6 days in respective differentiation media (Miltenyi DC differentiation medium order no. 130-094-812) resulting in dendritic cells. Cells were incubated in medium with surfactants in question for 48 h and subsequently stained for cell activation using fluorescently labeled antibodies (Mouse Anti-Human CD14 PerCP-Cy5.5 order no. 562692 from BD to check monocyte negative; Mouse Anti-Human CD11c BV605 from BD to check dendritic cell differentiation and Mouse Anti-Human CD80 FITC order no. 557226 from BD to check cell activation).

Protein 5 = experiment: Protein stabilization, purity by SEC-UPLC; format: physicochemical; details: Protein 5 formulation, 0.2% PLX188 or 0.04% PS20, PS80 or VEDS, one month at 30° C.
Description: A liquid formulation containing Protein 5 was prepared as herein described. […] (FIG. 8). A pull point was taken after this time and used for the following analysis.

Platelets = experiment: Inhibition of platelet aggregation, Whole Blood Aggregometry (WBA); format: cell-based, human; details: 0.04% or 0.01% surfactant, 10 minutes at 37° C.; agonists AA, TRAP6, collagen, ADP
Description: Human whole blood of 6 healthy volunteers was incubated with 0.04% or 0.01% surfactants for 10 minutes at 37° C. Saline solution was used as negative control. Platelets were activated with four independent agonists: arachidonic acid (AA), thrombin receptor activator peptide (TRAP6), collagen and ADP. Aggregation was measured through Whole Blood Aggregometry (WBA).
Whole Blood Aggregometry (WBA) consists of immerging electrodes into whole blood which measure the impedance between them. The addition of a platelet agonist activates the aggregation, resulting in an increase of impedance over time. This increase can be compared between a negative control and a testing sample to derive the degree of platelet inhibition.

## Polysorbate 80 [PS80]
[1]
  surfactant content after oxidative stress (H2O2): stable; also recorded: minor loss
[2]; citrate buffer
  surfactant content after pH and temperature stress: stable
[2]; histidine buffer
  surfactant content after pH and temperature stress: decreased content
[2]; phosphate buffer
  surfactant content after pH and temperature stress: decreased content
[2]; succinate buffer
  surfactant content after pH and temperature stress: decreased content
[3]
  surfactant content (enzymatic degradation by HCPs): Degradation is observed both at 5 °C and 40 °C
[4]
  surfactant content left: ~5%

## Vitamin E dimethyl glutarate [VEDG2.2]
Protein 1
  equilibrium surface tension / surface activity: even higher surface activity resulting in significant drop of surface tension
[5]
  particle count >2 μm/mL: perform better than TPGS-1000
Basophile cells
  number of activated B cells (%) upon surfactant treatment: lower level of B-cell activation than TPGS1000
Dendritic cells; listed as VEDG 2.2
  mean fluorescence intensity (MFI) fold change, dendritic cell (DC) activation: perform better than TPGS1000; also recorded: no DC activation
[3]
  surfactant content (enzymatic degradation by HCPs): not affected by enzymatic degradation
[4]
  surfactant content left: 88-90%
[4]; pull points every 1.5 months
  susceptibility to chemical degradation (surfactant content over time): minimal susceptibility to chemical degradation

## Polysorbate 20 [PS20]
Protein 5
  protein purity, relative comparison between surfactants: lower purity
  sum of impurities, relative comparison between surfactants: higher impurities

## Vitamin E dimethyl glutarate [VEDG3.3]
Dendritic cells; listed as VEDG 3.3
  mean fluorescence intensity (MFI) fold change, dendritic cell (DC) activation: perform better than TPGS1000; also recorded: no DC activation
Platelets
  inhibition of platelet aggregation: comparable platelet inhibition values as PS80
